The values below are quoted from earlier work in the PKSmart pharmacokinetics tables (Seal et al. 2025).

The nature of the data set: Lombardo, Berellini, Obach 2018, Drug Metab Dispos 46:1466, doi 10.1124/dmd.118.082966. Conditions: human; for clearance / half-life / MRT / Vd: in vivo, iv; for fraction unbound: plasma.

*1 amine or outer side, *2 acyl side, *3 side chain or, on linkers, in order; H or OH if unused. Where a SMILES comes first, the peptide text is derived from it. Bridges are numbered along the chain shown (N, C = ends). [ ]: non-standard residue; d: D form. The star is where a group is joined. ξ: configuration not given here. pTerphenylCO(4''-OnC5H11) = CCCCCOc1ccc(-c2ccc(-c3ccc(C(=O)*)cc3)cc2)cc1; ξOrn(4R-OH,5R-OH) = O=C(C(C[C@@H](O)[C@@H](O)N[*:3])N[*:1])[*:2]; ξhTyr(3S-OH,4S-OH) = NC(C(=O)O)[C@H](O)[C@@H](O)c1ccc(O)cc1; X4 = C[C@H]1CN([*:1])C(C(=O)[*:2])[C@H]1O; ξPro(4R-OH) = O=C(O)C1C[C@@H](O)CN1; ξThr(3R) = C[C@@H](O)C(N)C(=O)O

As for `Oc1cccc(-c2c3nc(c(-c4cccc(O)c4)c4ccc([nH]4)c(-c4cccc(O)c4)c4ccc([nH]4)c(-c4cccc(O)c4)c4nc2CC4)C=C3)c1`, the clearance was 0.06 mL/min/kg, the half-life is 91.5 h and the fraction unbound was 0.14.

`O=C(Nc1c(Cl)cncc1Cl)c1ccc(OC(F)F)c(OCC2CC2)c1`: the fraction unbound was 0.01.

Turning to `CC1=NS(=O)(=O)c2cc(Cl)ccc2N1`, the MRT was 58 h, the Vd is 0.21 L/kg, the clearance was 0.06 mL/min/kg and the half-life is 48 h.

With `COc1cccc2c1C(=O)c1c(O)c3c(c(O)c1C2=O)C[C@@](O)(C(=O)CO)C[C@@H]3O[C@H]1C[C@H](N2CCO[C@H](OC)C2)[C@H](O)[C@H](C)O1`, the MRT was 53.3 h, the Vd was 49 L/kg, the clearance was 15.3 mL/min/kg and the half-life was 49.2 h.

For the molecule `N=C(N)NC(=O)Cc1c(Cl)cccc1Cl`, the MRT was 22 h, the Vd is 5.6 L/kg, the clearance is 4.5 mL/min/kg and the half-life is 15 h.

`CCN(C)C(=O)Oc1cccc([C@H](C)N(C)C)c1`: the MRT is 1.9 h, the Vd was 1.3 L/kg, the clearance was 12 mL/min/kg and the half-life is 1.4 h. In addition, the fraction unbound is 0.6.

Regarding `NC[C@H]1O[C@H](O[C@H]2[C@H](O)[C@@H](O[C@H]3O[C@H](CO)[C@@H](O)[C@H](N)[C@H]3O)[C@H](N)C[C@@H]2N)[C@H](O)[C@@H](O)[C@@H]1O`, the MRT was 3.1 h, the Vd was 0.26 L/kg, the clearance is 1.4 mL/min/kg and the half-life was 2.1 h.

As for `O=C(NC[C@H]1CN(c2ccc(N3CCOCC3=O)cc2)C(=O)O1)c1ccc(Cl)s1`, the mean residence time (MRT) was 4.9 h, the Vd is 0.7 L/kg, the clearance was 2.4 mL/min/kg and the half-life is 7 h. Besides, the fraction unbound was 0.06.

Take `CCCCCOc1ccc(-c2ccc(-c3ccc(C(=O)NC4C[C@@H](O)[C@@H](O)NC(=O)C5[C@@H](O)[C@@H](C)CN5C(=O)C([C@@H](C)O)NC(=O)C([C@H](O)[C@@H](O)c5ccc(O)cc5)NC(=O)C5C[C@@H](O)CN5C(=O)C([C@@H](C)O)NC4=O)cc3)cc2)cc1` (stereo partly drawn) ({pTerphenylCO(4''-OnC5H11)}-[ξOrn(4R-OH,5R-OH)][ξThr(3R)][ξPro(4R-OH)][ξhTyr(3S-OH,4S-OH)][ξThr(3R)][X4]; lactam 1-C): the MRT was 45 h, the Vd was 0.57 L/kg, the clearance is 0.21 mL/min/kg and the half-life was 40 h.

`NCCCNc1ccc2c(CNCCO)nn3c4c(O)ccc(O)c4c(=O)c1c23`: the MRT is 11 h, the distribution volume (Vd) was 12 L/kg, the clearance is 18 mL/min/kg and the half-life was 32 h.

Turning to `COc1cc2c(cc1OC)[C@H]1C[C@@H](OC(=O)C(N)C(C)C)[C@H](CC(C)C)CN1CC2` (some centres undefined), the MRT was 12.8 h, the Vd was 1.31 L/kg, the clearance was 1.71 mL/min/kg and the half-life is 18 h. The unbound share (fraction unbound) is 0.01.

Regarding `Nc1ccn([C@@H]2C=C(CO)[C@@H](O)[C@H]2O)c(=O)n1`, the clearance was 3.61 mL/min/kg.

Turning to `C[C@](N)(Cc1ccc(O)c(O)c1)C(=O)O`, the MRT is 3.3 h, the distribution volume (Vd) is 0.69 L/kg, the clearance was 3.5 mL/min/kg and the half-life is 5.9 h.

As to `CC(C(=O)O)c1cccc(Oc2ccccc2)c1` (centres undefined), the MRT is 2.8 h, the Vd was 0.1 L/kg, the clearance is 0.6 mL/min/kg and the half-life is 2.24 h. In addition, the fraction unbound was 0.02.

As for `NC(O)=NO`, the mean residence time (MRT) is 4.8 h, the Vd is 0.52 L/kg, the clearance was 1.5 mL/min/kg and the half-life is 3.4 h.

In the case of `c1ccc(CN(CC2=NCCN2)c2ccccc2)cc1`, the mean residence time (MRT) was 3.45 h, the Vd is 3.9 L/kg, the clearance was 19.7 mL/min/kg and the half-life was 2.29 h.

For the molecule `O=C(NCCN1CCOCC1)Nc1nc2ccc(Sc3nnc4ccc(-c5ccc(F)cc5)nn34)cc2s1`, the mean residence time MRT was 8.19 h, the Vd is 4.1 L/kg, the clearance is 8.34 mL/min/kg and the half-life is 19.4 h.

Regarding `CN1CC(C(=O)N[C@]2(C)O[C@@]3(O)[C@@H]4CCCN4C(=O)C(Cc4ccccc4)N3C2=O)C=C2c3cccc4[nH]cc(c34)C[C@H]21` (some centres undefined), the MRT is 4 h, the Vd was 3.6 L/kg, the clearance is 15 mL/min/kg and the half-life was 2.1 h. The fraction unbound was 0.02.

Take `NC(=O)c1cc[n+](CC2=C(C(=O)O)N3C(=O)C(NC(=O)C(c4ccccc4)S(=O)(=O)[O-])[C@H]3SC2)cc1` (some centres undefined): the MRT was 2.47 h, the Vd is 0.29 L/kg, the clearance is 1.96 mL/min/kg and the half-life is 1.64 h.

As for `CN1CC[C@H](c2c(O)cc(O)c3c(=O)cc(-c4ccccc4Cl)oc23)[C@H](O)C1`, the MRT was 4 h, the Vd was 1.5 L/kg, the clearance was 6.1 mL/min/kg and the half-life is 5.2 h. For the same molecule, the fraction unbound was 0.06.

On to `CC(C)(C)C(NC(=O)C(CC1CCCC1)CN(O)C=O)C(=O)N1CCN(Cc2ccc3c(c2)OCO3)CC1` (centres undefined), for which the MRT is 5.9 h, the Vd was 1.1 L/kg, the clearance is 3.1 mL/min/kg and the half-life is 9.4 h. In addition, the fraction unbound is 0.2.

On to `CC(C(=O)O)c1ccc2c(c1)[nH]c1ccc(Cl)cc12` (centres undefined), for which the MRT was 7.2 h, the Vd is 0.22 L/kg, the clearance is 0.51 mL/min/kg and the half-life was 9.9 h. The fraction unbound was 0.001.

Consider `O=C(NCCNCC(O)COc1ccc(O)cc1)N1CCOCC1` (centres undefined), for which the MRT is 3.6 h, the Vd is 0.64 L/kg, the clearance was 3 mL/min/kg and the half-life was 7.7 h.

As for `Nc1c2c(nc3ccccc13)CCCC2`, the MRT is 3.3 h, the Vd is 11 L/kg, the clearance was 56 mL/min/kg and the half-life is 3.3 h. Besides, the fraction unbound was 0.25.

Regarding `CC1(C)O[C@@H]2C[C@H]3[C@@H]4CC=C5CC(=O)C=C[C@]5(C)[C@@]4(F)[C@@H](O)C[C@]3(C)[C@]2(C(=O)CO)O1`, the mean residence time (MRT) was 2.5 h, the Vd was 1.4 L/kg, the clearance was 9.4 mL/min/kg and the half-life was 2.4 h. Also, the unbound share (fraction unbound) is 0.2.

As to `C=CCC1=CC(C)C[C@H](C)C[C@H](OC)[C@H]2O[C@@](O)(C(=O)C(=O)N3CCCCC3C(=O)O[C@H](/C(C)=C/[C@@H]3CC[C@@H](O)[C@H](OC)C3)[C@H](C)[C@@H](O)CC1=O)[C@H](C)C[C@@H]2OC` (some centres undefined), the MRT was 27 h, the Vd was 1.2 L/kg, the clearance is 0.7 mL/min/kg and the half-life is 26 h.

With `COc1cc2c(cc1OC)CN(CCc1ccc(NC(=O)c3cc(OC)c(OC)cc3NC(=O)c3cnc4ccccc4c3)cc1)CC2`, the MRT was 38 h, the Vd was 6.4 L/kg, the clearance was 2.8 mL/min/kg and the half-life was 29 h.

`CCCn1c(=O)c2[nH]c(C34CCC(CCC(=O)O)(CC3)CC4)nc2n(CCC)c1=O`: the MRT is 11.7 h, the Vd was 0.76 L/kg, the clearance was 1.08 mL/min/kg and the half-life is 16 h. Further, the fraction unbound is 0.1.

`CS(=O)(=O)c1ccc([C@@H](O)[C@@H](COC(=O)CN)NC(=O)C(Cl)Cl)cc1`: the MRT is 0.23 h, the Vd is 0.13 L/kg, the clearance is 9.6 mL/min/kg and the half-life is 0.28 h. Moreover, the fraction unbound is 0.27.

For the molecule `CC(C)[N+]1(C)[C@@H]2CC[C@H]1CC(OC(=O)C(CO)c1ccccc1)C2` (some centres undefined), the MRT was 2.7 h.

As to `Cn1cc[nH]c1=S`, the MRT is 3.8 h, the Vd is 0.86 L/kg, the clearance is 3.7 mL/min/kg and the half-life is 2.4 h.

As for `CCN1CCC[C@H]1CNC(=O)c1c(O)c(Cl)cc(Cl)c1OC`, the MRT was 15.3 h, the Vd was 1.1 L/kg, the clearance is 1.2 mL/min/kg and the half-life was 14 h. For the same molecule, the fraction unbound is 0.06.

Take `COC(=O)C(c1ccccc1Cl)N1CCc2sccc2C1` (centres undefined): the MRT was 1.42 h, the Vd was 2.01 L/kg, the clearance is 23.6 mL/min/kg and the half-life is 5.06 h. In addition, the fraction unbound is 0.02.

In the case of `CC[C@]1(O)C[C@@H]2CN(CCc3c([nH]c4ccccc34)[C@@](C(=O)OC)(c3cc4c(cc3OC)N(C)[C@H]3[C@@](O)(C(=O)OC)[C@H](OC(C)=O)[C@]5(CC)C=CCN6CC[C@]43[C@@H]65)C2)C1`, the MRT is 150 h, the Vd was 28 L/kg and the half-life was 67 h.
